Columns and labels:
[1] = target: T1, ZEITLUPE LOV domain (ZTL 29-165, ZTL-S) (Arabidopsis thaliana, UniProt Q94BT6, V48I/G80R); assay: X-ray crystal structure; assay type: binding; details: dark state (5SVV, 2.1 Å) non-covalent; light state (5SVW, 2.3 Å) covalent C4a adduct with C82
T1 construct: gene ADO1; LOV domain, residues 29-165, E. coli, 6xHis or GST tag cleaved by TEV; monomer 16 kDa, homodimer 33 kDa (MALS)

[2] = target: T2, ZEITLUPE LOV domain (ZTL 29-165, ZTL-S) (Arabidopsis thaliana, UniProt Q94BT6); assay: X-ray crystal structure; assay type: binding; details: dark state, 2.5 Å; FMN non-covalently bound next to C82
T2 construct: gene ADO1; LOV domain, residues 29-165, E. coli, 6xHis or GST tag cleaved by TEV; monomer 16 kDa, homodimer 33 kDa (MALS)
T2 sequence (Q94BT6 29-165): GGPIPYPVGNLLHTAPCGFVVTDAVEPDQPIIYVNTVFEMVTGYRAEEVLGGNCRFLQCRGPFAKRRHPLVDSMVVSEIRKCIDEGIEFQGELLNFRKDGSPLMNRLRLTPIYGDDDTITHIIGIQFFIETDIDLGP

T1 sequence (Q94BT6 29-165 V48I/G80R): as the sequence (Q94BT6 29-165) above, with V20I, G52R counted along it

Cc1cc2nc3c(=O)[nH]c(=O)nc-3n(C[C@H](O)[C@H](O)[C@H](O)COP(=O)(O)O)c2cc1C [FMN]
X-ray crystal structure [1]: Light state crystal structure of V48I:G80R | X-ray crystal structure [2]: The helices cradle the photoreactive FMN adjacent to C82 (Eα helix).

From paper PMC5370183, “Kinetics of the LOV domain of ZEITLUPE determine its circadian function in Arabidopsis” (eLife, 2017)
